Earlier results as cited in the CATMoS acute toxicity set (Mansouri et al. 2021).

Assay: rat acute oral toxicity
Conditions: in vivo

Row | SMILES | LD50
1 | NS(=O)(=O)C1CCCCC1 | 80 mg/kg
2 | Cn1c2c(c3cc(N)ccc31)CCCC2 | 229 mg/kg
3 | C=CCN(CC=C)c1ccc(OC(=O)NC)cc1 | 86.8 mg/kg
4 | C=CC(=C)CCCC(C)(C)OC(C)=O | 6300 mg/kg
5 | CCCCOC(=S)SC(=S)OCCCC | 1400 mg/kg
6 | CCCCCCCCOC(=O)CC(C(=O)OCCCCCCCC)S(=O)(=O)O (stereo unspecified) | 1900 mg/kg
7 | OC(CCl)CN1CCCN(CC(O)CCl)c2ccccc21 (stereo unspecified) | 750 mg/kg
8 | O=COCc1ccccc1 | 1400 mg/kg
9 | COc1ccccc1S | 1740 mg/kg
10 | CC1(C)C(=O)N(Cl)C(=O)N1Br | 1390 mg/kg
11 | CCOC(=O)C1=CNC2CCCC(C)N2C1=O (stereo unspecified) | 2500 mg/kg
12 | CC(C)CCC(=O)O | 2050 mg/kg
13 | CCCSP(=O)(OCC)Oc1ccc(Cl)cc1Cl (stereo unspecified) | 320 mg/kg
14 | CC(CC(=O)OC(C)(C)C)=NNc1ccc(N2CCOCC2)nn1 | 970 mg/kg
15 | CCCC(=O)c1ccc(N)cc1 | 84 mg/kg
16 | CC1C(=O)C[C@]2(C(C)C)C[C@H]12 (single isomer, unassigned; (-)) | 192 mg/kg
17 | Nc1ccc(O)c(C(=O)O)c1 | 2800 mg/kg
18 | CCOC1c2ccccc2C(=O)N(C)c2ccccc21 (stereo unspecified) | 4000 mg/kg
19 | CCC(O)CC | 1870 mg/kg
20 | Oc1ccc(O)c2[nH]c(C(F)(F)F)nc12 | 29 mg/kg
21 | Cc1ccc2ccc(=O)oc2c1 | 3800 mg/kg
22 | O=C1C=CC(=O)N1C(=O)NCNC(=O)N1C(=O)C=CC1=O | 1420 mg/kg
23 | CCC(C)(C)/N=C(\NC#N)Nc1cccnc1 | 14 mg/kg
24 | CCCNC(=O)OCC(O)C1COc2ccccc2O1 (stereo unspecified) | 1500 mg/kg
25 | COP(=S)(OC)SCC(=O)N(c1ccc(Cl)cc1)C(C)C | 472 mg/kg
26 | CCN(C(=O)c1cc(Cl)nc(Cl)c1)C1CC1 | 78 mg/kg

Row | SMILES | LD50
27 | C=C(C)C(=O)OCC(=O)OCC | 7880 mg/kg
28 | CC(=O)OC(C)(C)CCc1ccccc1 | 4850 mg/kg
29 | CN(C)C1CSSC1 | 420 mg/kg
30 | CNC(=O)C(Cl)C(C)=O (stereo unspecified) | 700 mg/kg
31 | Cn1c(=O)c2c(ncn2CCO)n(C)c1=O | 710 mg/kg
32 | O=P(O)(O)CN(CC(O)CN(CP(=O)(O)O)CP(=O)(O)O)CP(=O)(O)O | 4300 mg/kg
33 | CCCCS | 1500 mg/kg
34 | C(=Nc1ccccc1)Nc1ccccc1 | 1900 mg/kg
35 | CCOC(=O)CSP(=O)(OC)OC | 385 mg/kg
36 | O=S1(=O)CCN(c2ccccc2)CC1 | 800 mg/kg
37 | CCC(C)=CCCC(C)=O | 3570 mg/kg
38 | Cc1ccc(N)cc1[N+](=O)[O-] | 6860 mg/kg
39 | CCOP(=S)(OCC)Oc1cc([N+](=O)[O-])c(Cl)cc1Cl | 100 mg/kg
40 | S=c1[nH]c2ccccc2s1 | 631 mg/kg
41 | CCOCCC#N | 3200 mg/kg
42 | Cc1cccc(N(CCO)CCO)c1 | 3100 mg/kg
43 | C=C(C)C(=O)OCCSCC | 7400 mg/kg
44 | CC(C)NCC(O)c1cc(O)cc(O)c1 (stereo unspecified) | 3370 mg/kg
45 | CCCCCCCNC(=O)Oc1ccc2c(c1)C1(C)CCN(C)C1N2C (stereo unspecified) | 25.1 mg/kg
46 | NCCC[C@H](N)C(=O)O | 10000 mg/kg
47 | CCCCN(CCCC)CCOc1ccnc(N)n1 | 1000 mg/kg
48 | O[C@H]([C@H](O)[C@@H]1CO1)[C@H]1CO1 (racemic) | 14 mg/kg
49 | CCOP(=O)(O)Sc1ccc(C)cc1 | 50 mg/kg
50 | O=C1CCc2cc(C(=O)CCN3CCN(c4ccccc4)CC3)ccc2N1 | 500 mg/kg
51 | CC(C)=C1CC[C@@H](C)CC1=O | 470 mg/kg
52 | O=C(O)CN(CCN(CC(=O)O)CC(=O)O)CCN(CC(=O)O)CC(=O)O | 4550 mg/kg

Row | SMILES | LD50
53 | O=c1[nH]c2ccccc2n1C1CCN(CCCC(c2ccc(F)cc2)c2ccc(F)cc2)CC1 | 1100 mg/kg
54 | CC(C)C12C=CC(C)(CC1)OO2 (stereo unspecified) | 200 mg/kg
55 | CCN(CC)CCOC(=O)Cc1ccc2c(c1)OCc1ccccc1C2=O | 150 mg/kg
56 | CC(=O)c1cc2cccc(OCC(O)CNC(C)C)c2o1 (stereo unspecified) | 922 mg/kg
57 | NC1CCc2ccccc2C1 (stereo unspecified) | 100 mg/kg
58 | CCc1cc(C(N)=S)ccn1 | 1320 mg/kg
59 | CCCCC(CC)CN1C(=O)C2C3C=CC(C3)C2C1=O (stereo unspecified) | 2800 mg/kg
60 | Oc1ccc(Nc2ccccc2)cc1 | 3300 mg/kg
61 | COP(=S)(OC)SCc1ccc(SP(=S)(OC)OC)cc1 | 265 mg/kg
62 | NC1=NCC2c3ccccc3Cc3ccccc3N12 (stereo unspecified) | 192 mg/kg
63 | CCCC(C)(Oc1ccc(Cc2ccc(Cl)cc2)cc1)C(=O)OCc1cccnc1 (stereo unspecified) | 10000 mg/kg
64 | CCN(CC)CCCNC(=O)C(C)(C)Oc1ccc(Cl)cc1 | 150 mg/kg
65 | C=C(C)C(=O)OCCCl | 200 mg/kg
66 | Fc1cc(F)c2nc(C(F)(F)F)[nH]c2c1F | 2.29 mg/kg
67 | Cc1nc2n(c(=O)c1CCN1CCC(c3noc4cc(F)ccc34)CC1)CCCC2 | 56.6 mg/kg
68 | c1ccc(CC2=NCCN2)cc1 | 1200 mg/kg
69 | c1ccc(C2CC(N3CCCC3)CC(c3ccccc3)C2c2ccccn2)cc1 (stereo unspecified) | 479 mg/kg
70 | O=C(CS)OCCOC(=O)CS | 330 mg/kg
71 | NC(=O)C(=O)O | 21100 mg/kg
72 | CCCCCCCCCC(=O)NP(=O)(OC)SC (stereo unspecified) | 125 mg/kg
73 | CCOP(=S)(OCC)SC(=O)CN(C)C(N)=O | 16 mg/kg
74 | COC(=O)Nc1cccc(OC(=O)Nc2cccc(C)c2)c1 | 4000 mg/kg
75 | COc1ccc([N+](=O)[O-])cc1Cl | 1180 mg/kg
76 | CC1=C[C@H]2O[C@@H]3[C@H](O)[C@@H](O)[C@](C)([C@@]2(CO)[C@H](O)C1=O)[C@]31CO1 | 19.5 mg/kg
